The results in this text go back to patent US20080057010A1, “METHOD FOR SKIN CARE” (NULIV SCIENCE LTD., priority 2006, published 2008).

In one experiment the test system is collagen III. The experiment is described as follows: Collagen III expression and secretion in human HaCaT cells (western blot). To be noted: relative to 0 = 1.00. The experiment is classed as cell-based. How it is done: The Spontaneously transformed human keratinocyte cell lines HaCaT cells were grown at 37° C. in a humidified incubator under 5% CO2 and 95% air in culture medium such as Dulbecco Modified Eagle Medium (DMEM) supplemented with 10% Fetal Bovine Serum (FBS), 100 IU/mL penicillin, 100 μg/mL of streptomycin, 2 mM sodium pyruvate and 1% Non-Essential Amino Acids (NEAA). The culture medium was replaced every other day. After confluence, the cells were subcultured following trypsinization. For subcultures cells were harvested after brief treatment with 0.1% trypsin/ethylenediaminetetraacetic acid (EDTA) solution and seeded at a dilution of 1:10. Cells between passages 12 and 45 were used for studies. The cells were seeded and incubated for 24 h before treated with the astragalosides for 24 h. Control cultures were maintained in medium supplemented with vehicle (dimethyl sulfoxide (DMSO) 0.1%). No growth and differentiation effects of DMSO were observed under these culture conditions.
(§1) The cells were treated with pure compounds such as astragaloside I (AS 1), astragaloside II (AS2), astragaloside III (AS3), astragaloside IV (AS4), astragaloside VI (AS6), isoastragaloside I (isoAS1), isoastragaloside II (isoAS2), and cycloastragenol 6-O-β-D-glucopyranose (AA) at concentrations of 0-10 μM. Alternatively, the cells were also treated with the crude extracts, such as butanol fraction and water insoluble fraction of Astragalus membranaceus at concentrations of 0, 1, 10, and 40 μg/mL. The cells were treated with the indicated compounds or the extracts for 24 h before harvested for analysis of collagen I and III expressed in the whole cell extract or secreted into the culture medium.
(§2) Western blot analysis was carried out on both of cultured medium and cell lysates. The cells were plated on 6-cm dishes at a density of 1×10^6 cells/dish for 24 h prior to treatment with indicated concentrations of astragalus triterpenoids as indicated for another 48 h. The conditioned culture mediums were then centrifuged, 2-fold concentrated and collected for assay of collagens and MMPs secreted into the culture medium. The cells were washed and lysed in 0.2 mL of lysis buffer (1% NP-40, 50 mM Tris-HCl, pH 7.4, 180 mM NaCl, 1 mM EDTA, 1 mM PMSF, 1 mM NaF, 10 mM Na3VO4) for 30 min at 4° C. After centrifuging at 17500 g for 15 min, the supernatants of cell lysate were also collected. Protein concentration of the samples were measured using the bicinchoninic acid (BCA) protein assay kit according to the manufacturer's protocol (Pierce, Rockford, Ill., USA). Equal amount of protein samples of concentrated conditioned medium (100 μg) or cell lysate supernatants (50 μg) were mixed with an appropriate volume of 4×SDS sampling buffer and separated by 8% SDS-PAGE gel. The protein bands separated in the SDS-PAGE gel were blotted onto a polyvinylidene fluoride (PVDF) membrane. The blotted PVDF membrane was washed twice and blocked in freshly prepared Tris-buffered saline (TBS) containing 0.1% Tween-20 and 7% skim milk (TBST) for 2 h at room temperature. The PVDF membrane was then incubated with either antibodies against collagen I and III or the housekeeping protein α-tubulin (Santa Cruz Biotechnology, Santa Cruz, Calif.) for 18 h at 4° C. Horseradish peroxidase-conjugated anti-goat antibody was used as secondary antibody. Signals were visualized by an enhanced chemiluminescence kit (Clonetech, Palo Alto, Calif., USA) followed by exposure to X-ray films.
The collagen III was also over-expressed in the human HaCaT cells treated with different doses (0.01, 0.1 and 1 μM) of the astragalosides, such as AS1, AS2 and AS3. Similarly, the collagen III was over-expressed in the human HaCaT cells treated with various dosages (1, 10 and 40 μg/mL) of the crude extract as shown in Table 1B. On the other hand, the amount of collagen III secreted into the medium was measured to determine the effect on cellular release of collagen III. […]

The test system of a further experiment is collagen I. The experiment is described as follows: Collagen I expression and secretion in human HDF cells (western blot). The experiment is classed as cell-based. Conditions: relative to 0 = 1.00. The protocol:
Primary human dermal fibroblasts cells (HDF) were purchased from Cascade Biologics (Portland, Oreg., USA) and cultured in medium 106 supplemented with 10% fetal bovine serum (FBS), 100 IU/mL penicillin, 100 μg/mL of streptomycin. The cells from passages 4 to 10 were used for this study. Culture medium was replaced every other day. After confluence, the cells were subcultured following trypsinization. For subcultures cells were harvested after brief treatment with 0.1% trypsin/EDTA solution and seeded at a dilution of 1:10. The cells were seeded at 1×10^5 cells in 6-well culture plate for 24 h before treated with astragalosides or crude extracts, such as butanol fraction and water insoluble fraction of Astragalus membranaceus for the indicated time periods. Control cultures were maintained in medium supplemented with vehicle (dimethyl sulfoxide, DMSO, 0.1%). No growth and differentiation effects of DMSO were observed under these culture conditions.
as §1, §2
The collagen expression in the human HDF cells was also determined. […] And Collage I was over-expressed in the cells treated with various doses (1, 10, 40 μg/mL) of the crude extracts, such as butanol fraction and water insoluble fraction of Astragalus membranaceus.

The test system of the next experiment is HaCaT cells. The experiment is described as follows: Glucosamine uptake assay in HaCaT cells. The format is cell-based, human. Conditions: 0.1 μM; for Uptake rate (glucosamine): 48 h treatment; for Percentage (%) of control glucosamine uptake: relative to control. How it is done:
In glucosamine uptake test, HaCaT cells were seeded into 24-well plate at a density of 3×10^4 cells/well and cultured for 24 h. The cells were then treated in the absence (solvent control) or presence of various concentrations of astragalosides for another 48 h. The treated cells were then washed twice with PBS and incubated in glucose and serum free medium (GSFM). After 2 h, the cells were replaced with fresh GSFM containing 0.2 μCi of [^14C]-Glucosamine (American Radiolabelled Chemicals Inc, ARC, St. Louis, Mo., USA). At the designated time interval, the cells were washed twice with GSFM containing cold glucosamine and then lysed in 200 μL 2% SDS. Cell lysates were centrifuged at 15000 g for 15 min. Intracellular uptaken glucosamine was determined by transferring 10 μL of the cell lysate to filter-bottemed UniFilter plates (Perkim-Elmer) and counted. Protein concentration of the samples was measured using the BCA protein assay kit as described above. Glucosamine accumulated in the cells was calculated and normalized to protein concentration and uptake rate was expressed as counts per minute per microgram of cell protein (cpm/min/μg).

In the case of `CC(C)(O)[C@@H]1CC[C@](C)([C@H]2[C@@H](O)C[C@@]3(C)[C@@H]4C[C@H](O[C@@H]5O[C@H](CO)[C@@H](O)[C@H](O)[C@H]5O)[C@H]5C(C)(C)[C@@H](O[C@@H]6OC[C@@H](O)[C@H](O)[C@H]6O)CC[C@@]56C[C@@]46CC[C@]23C)O1` [AS4, astragaloside IV], the results for the “Collagen III in medium” value in the experiment with collagen III (0.01 μM), with collagen III (0.1 μM) and in the experiment with collagen III (1 μM) were 0.79, 1.13 and 1.16, respectively. Moreover, the “Collagen I in cell” value is recorded as 1.16 with collagen I (0.01 μM), 1.33 in the experiment with collagen I (0.1 μM) and 1.07 in the experiment on collagen I (1 μM). In addition, the figures for the “Collagen I in medium” value in the experiment on collagen I (0.01 μM), in the experiment on collagen I (0.1 μM) and in the experiment with collagen I (1 μM) were 1.24, 1.11 and 1.11, respectively. Also, the “Uptake rate (glucosamine)” value with HaCaT cells was found to be 0.8931 ± 0.0918 CPM/μg protein. The “Percentage (%) of control glucosamine uptake” value (shortened to “Percentage (%)”) in the experiment on HaCaT cells came out at 108.36%.
As to `CC(=O)O[C@H]1[C@H](O[C@H]2CC[C@]34C[C@]35CC[C@]3(C)[C@@H]([C@@]6(C)CC[C@@H](C(C)(C)O)O6)[C@@H](O)C[C@@]3(C)[C@@H]5C[C@H](O[C@@H]3O[C@H](CO)[C@@H](O)[C@H](O)[C@H]3O)[C@H]4C2(C)C)OC[C@@H](OC(C)=O)[C@@H]1O` [isoAS1, isoastragaloside I], the “Collagen III in medium” value turned out to be 3.32 in the experiment on collagen III (0.01 μM), 4.41 in the experiment on collagen III (0.1 μM) and 6.53 in the experiment on collagen III (1 μM). For the same compound, the “Collagen I in cell” value in the experiment on collagen I (0.01 μM) came to 0.71; with collagen I (0.1 μM) it was 1.11; with collagen I (1 μM) it was 1.27. For the same compound, the “Collagen I in medium” value in the experiment with collagen I (0.01 μM) came to 1.20; in the experiment on collagen I (0.1 μM) it was 1.08; with collagen I (1 μM), 0.96. Besides, the “Uptake rate (glucosamine)” value in the experiment on HaCaT cells was found to be 0.9589 ± 0.0665 CPM/μg protein. In addition, in the experiment on HaCaT cells, the “Percentage (%)” value was found to be 116.34%.
As for astragaloside I [AS1], the “Collagen III in cell” value was 1.29 in the experiment on collagen III (0.01 μM), 1.59 in the experiment on collagen III (0.1 μM) and 2.63 in the experiment on collagen III (1 μM). In addition, the “Uptake rate (glucosamine)” value in the experiment on HaCaT cells is reported as 1.0482 ± 0.0560 CPM/μg protein. Further, in the experiment with HaCaT cells, the “Percentage (%)” value is 127.18%.
In the case of `CC(=O)O[C@@H]1[C@@H](O)[C@H](O[C@H]2CC[C@]34C[C@]35CC[C@]3(C)[C@@H]([C@@]6(C)CC[C@@H](C(C)(C)O)O6)[C@@H](O)C[C@@]3(C)[C@@H]5C[C@H](O[C@@H]3O[C@H](CO)[C@@H](O)[C@H](O)[C@H]3O)[C@H]4C2(C)C)OC[C@H]1O` [isoAS2, isoastragaloside II], in the experiment with HaCaT cells, the “Uptake rate (glucosamine)” value came to 0.9226 ± 0.0668 CPM/μg protein and the “Percentage (%)” value was 111.94%.
Regarding `CC(=O)O[C@H]1[C@H](O[C@H]2CC[C@]34C[C@]35CC[C@]3(C)[C@@H]([C@@]6(C)CC[C@@H](C(C)(C)O)O6)[C@@H](O)C[C@@]3(C)[C@@H]5C[C@H](O[C@@H]3O[C@H](CO)[C@@H](O)[C@H](O)[C@H]3O)[C@H]4C2(C)C)OC[C@@H](O)[C@@H]1O` [AS2, astragaloside II], the figures for the “Collagen III in cell” value in the experiment on collagen III (0.01 μM), with collagen III (0.1 μM) and in the experiment on collagen III (1 μM) were 1.36, 1.44 and 1.49, respectively. For the same compound, the “Collagen I in cell” value with collagen I (0.01 μM) was found to be 1.02; with collagen I (0.1 μM), 0.73; in the experiment with collagen I (1 μM), 1.26. For the same compound, the “Collagen I in medium” value in the experiment on collagen I (0.01 μM) was found to be 1.24; with collagen I (0.1 μM), 1.15; in the experiment on collagen I (1 μM) it was 1.02. The “Uptake rate (glucosamine)” value in the experiment with HaCaT cells turned out to be 0.9561 ± 0.0918 CPM/μg protein. The “Percentage (%)” value with HaCaT cells was 116.00%.
For the compound `CC(C)(O)[C@@H]1CC[C@](C)([C@H]2[C@@H](O)C[C@@]3(C)[C@@H]4C[C@H](O[C@@H]5O[C@H](CO)[C@@H](O)[C@H](O)[C@H]5O)[C@H]5C(C)(C)[C@@H](O[C@@H]6OC[C@@H](O)[C@H](O)[C@H]6O[C@@H]6O[C@H](CO)[C@@H](O)[C@H](O)[C@H]6O)CC[C@@]56C[C@@]46CC[C@]23C)O1` [AS6, astragaloside VI], the “Collagen III in medium” value came to 4.55 with collagen III (0.01 μM), 4.27 in the experiment on collagen III (0.1 μM) and 3.86 in the experiment on collagen III (1 μM). In addition, the results for the “Collagen I in cell” value with collagen I (0.01 μM), in the experiment with collagen I (0.1 μM) and in the experiment on collagen I (1 μM) were 1.18, 1.41 and 1.30, respectively. For the same compound, the entries for the “Collagen I in medium” value in the experiment with collagen I (0.01 μM), in the experiment with collagen I (0.1 μM) and in the experiment with collagen I (1 μM) were 1.19, 1.29 and 1.25, respectively. Also, the “Uptake rate (glucosamine)” value in the experiment with HaCaT cells came to 0.8471 ± 0.0278 CPM/μg protein. The “Percentage (%)” value in the experiment on HaCaT cells was found to be 102.78%.
Consider `CC(C)(O)[C@@H]1CC[C@](C)([C@H]2[C@@H](O)C[C@@]3(C)[C@@H]4C[C@H](O)[C@H]5C(C)(C)[C@@H](O[C@@H]6OC[C@@H](O)[C@H](O)[C@H]6O[C@@H]6O[C@H](CO)[C@@H](O)[C@H](O)[C@H]6O)CC[C@@]56C[C@@]46CC[C@]23C)O1` [AS3, astragaloside III], for which the entries for the “Collagen III in cell” value in the experiment with collagen III (0.01 μM), with collagen III (0.1 μM) and with collagen III (1 μM) were 0.86, 1.22 and 2.12, respectively. Besides, the “Uptake rate (glucosamine)” value in the experiment on HaCaT cells came to 1.0129 ± 0.0371 CPM/μg protein. For the same compound, in the experiment with HaCaT cells, the “Percentage (%)” value is reported as 122.90%.
